Earlier results on two compounds are cited in patent publication US20130085461A1, “Method for Pre-Debriding Treatment of Non-Viable Skin Tissue and Compositions and System Thereof” (BIOMEDICAL CONCEPTS LLC, priority 2011, published 2013).

Like-named read-outs stand apart in the source and are kept apart here.

In this data set the target is T1, rat tail Type I collagen (Rattus norvegicus, UniProt P02454+P02466).
T1 construct: host or cells: rat tail (tissue), as reported in the cited work
As to conditions: non-viable rat tail Type I collagen.

T1 sequence (P02454 152-1207 limits assumed): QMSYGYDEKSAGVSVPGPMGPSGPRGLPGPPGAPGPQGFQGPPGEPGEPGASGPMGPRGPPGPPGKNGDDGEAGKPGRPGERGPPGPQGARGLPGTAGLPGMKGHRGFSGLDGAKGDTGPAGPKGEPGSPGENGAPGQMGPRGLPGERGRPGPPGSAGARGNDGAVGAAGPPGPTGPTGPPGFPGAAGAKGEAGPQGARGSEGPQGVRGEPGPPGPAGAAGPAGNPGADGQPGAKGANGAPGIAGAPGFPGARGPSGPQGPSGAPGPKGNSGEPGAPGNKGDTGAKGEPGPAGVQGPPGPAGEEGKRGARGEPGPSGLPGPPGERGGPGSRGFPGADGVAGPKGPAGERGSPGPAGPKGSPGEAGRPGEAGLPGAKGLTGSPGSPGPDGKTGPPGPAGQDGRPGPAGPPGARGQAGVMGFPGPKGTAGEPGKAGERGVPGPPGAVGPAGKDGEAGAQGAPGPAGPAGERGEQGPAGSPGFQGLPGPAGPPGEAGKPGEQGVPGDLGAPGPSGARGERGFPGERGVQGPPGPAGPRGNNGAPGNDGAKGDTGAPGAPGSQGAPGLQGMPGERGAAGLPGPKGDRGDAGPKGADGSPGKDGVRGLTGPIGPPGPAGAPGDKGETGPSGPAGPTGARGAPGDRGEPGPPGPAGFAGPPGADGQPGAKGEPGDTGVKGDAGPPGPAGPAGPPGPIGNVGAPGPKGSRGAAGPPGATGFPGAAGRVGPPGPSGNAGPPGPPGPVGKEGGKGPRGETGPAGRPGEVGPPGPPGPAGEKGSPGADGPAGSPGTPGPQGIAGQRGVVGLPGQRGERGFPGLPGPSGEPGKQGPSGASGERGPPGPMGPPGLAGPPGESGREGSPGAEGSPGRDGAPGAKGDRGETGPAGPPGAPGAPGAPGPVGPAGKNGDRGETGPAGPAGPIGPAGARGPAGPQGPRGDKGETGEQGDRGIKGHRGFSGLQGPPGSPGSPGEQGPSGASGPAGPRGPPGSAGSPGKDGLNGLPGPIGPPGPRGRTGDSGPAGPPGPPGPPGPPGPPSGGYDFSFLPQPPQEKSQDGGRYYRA
T1 sequence (P02466 86-1125 limits assumed): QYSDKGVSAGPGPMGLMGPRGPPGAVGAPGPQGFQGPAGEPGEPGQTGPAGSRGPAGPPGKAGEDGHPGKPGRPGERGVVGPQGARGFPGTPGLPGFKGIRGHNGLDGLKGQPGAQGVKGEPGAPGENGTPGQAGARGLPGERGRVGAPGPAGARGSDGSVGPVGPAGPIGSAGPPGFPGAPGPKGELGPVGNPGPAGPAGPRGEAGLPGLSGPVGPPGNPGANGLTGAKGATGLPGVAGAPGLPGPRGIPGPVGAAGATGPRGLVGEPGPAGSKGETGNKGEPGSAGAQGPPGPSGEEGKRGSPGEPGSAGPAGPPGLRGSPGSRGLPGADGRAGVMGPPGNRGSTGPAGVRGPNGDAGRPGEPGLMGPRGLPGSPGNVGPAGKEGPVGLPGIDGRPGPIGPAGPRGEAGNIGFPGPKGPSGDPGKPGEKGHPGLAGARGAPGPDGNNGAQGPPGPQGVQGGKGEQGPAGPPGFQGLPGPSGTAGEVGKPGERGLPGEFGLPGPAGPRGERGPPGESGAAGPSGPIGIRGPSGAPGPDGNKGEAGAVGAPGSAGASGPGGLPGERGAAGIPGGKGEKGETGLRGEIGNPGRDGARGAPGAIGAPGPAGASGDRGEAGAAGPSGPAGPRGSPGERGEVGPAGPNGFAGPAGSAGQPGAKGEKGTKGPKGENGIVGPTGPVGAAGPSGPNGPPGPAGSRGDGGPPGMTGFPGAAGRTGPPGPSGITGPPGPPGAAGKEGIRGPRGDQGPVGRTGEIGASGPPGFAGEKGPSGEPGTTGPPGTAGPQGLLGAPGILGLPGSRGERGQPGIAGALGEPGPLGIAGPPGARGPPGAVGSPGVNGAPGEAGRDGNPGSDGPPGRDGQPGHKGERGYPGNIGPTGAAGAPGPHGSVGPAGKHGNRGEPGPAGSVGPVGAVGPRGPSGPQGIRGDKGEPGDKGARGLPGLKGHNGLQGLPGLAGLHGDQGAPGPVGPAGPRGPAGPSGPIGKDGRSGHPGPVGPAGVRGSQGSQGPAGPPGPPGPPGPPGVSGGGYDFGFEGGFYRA

For the compound `CCCO` [n-propanol], the “reduction of denaturation temperature (Tm=67.5° C.)” value (10 mole %) is 3.5 °C. `NC(N)=O` [urea]: the “reduction of denaturation temperature (Tm=67.5° C.)” value (3M) was 13.5 °C.
